Tests used:
Sprague-Dawley rats = test: Acute toxicity test on Sprague-Dawley rats; format: in vivo
Experimental: (§1) The acute toxicity tests on ICR mice (mean body weight 25±5 g) and Sprague-Dawley rats (300±10 g, Jung-Ang Lab Animal Inc.) were performed using the oleic acid of the Example 1. Four group consisting of 10 mice or rats was administrated orally with 100 mg/kg, 250 mg/kg, 500 mg/kg and 1000 mg/kg of test sample or solvents (0.2[…], i.p.) respectively and observed for 2 weeks.
(§2) The acute toxicity tests on ICR mice and Sprague-Dawley rats were performed using the extract of the Example 1. Four group consisting of 10 mice or rats was administrated intraperitoneally with 25 mg/kg, 50 mg/kg, 100 mg/kg and 200 mg/kg of test sample or solvents (0.2[…], i.p.), respectively and observed for 24 hours.

ICR mice = test: Acute toxicity test on ICR mice; format: in vivo
Experimental: as §1, §2

[1] = test system: neuronal cell injury caused by focal cerebral ischemia; test: Neuroprotective activity, middle cerebral artery occlusion (intraluminal suture) with TTC staining; format: in vivo, Sprague-Dawley rats
[2] = intraperitoneally 25, 50, 100 and 200 mg/kg, observed for 24 hours
[3] = orally 100, 250, 500 and 1000 mg/kg, observed for 2 weeks

## CCCCCCCC/C=C\CCCCCCCC(=O)O [oleic acid, Cis-9-octadecenoic acid]
Sprague-Dawley rats; [2]
  treatment-related effects on mortality, clinical signs, body weight changes and gross findings: no treatment-related effects
Sprague-Dawley rats; [3]
  treatment-related effects on mortality, clinical signs, body weight changes and gross findings: no treatment-related effects
ICR mice; [2]
  treatment-related effects on mortality, clinical signs, body weight changes and gross findings: no treatment-related effects
ICR mice; [3]
  treatment-related effects on mortality, clinical signs, body weight changes and gross findings: no treatment-related effects
[1]; 1 mg/kg, 10 mg/kg, 100 mg/kg, 2 h MCA occlusion, 24 hours after reperfusion, FIG. 1
  staining area with TTC (white) versus control group: smaller staining area with TTC (white) due to little damage of neuronal cell than control group
[1]; group C: 10 mg/kg
  protective effect on neuronal cell death compared with control group: 32.9%
[1]; group D: 100 mg/kg
  protective effect on neuronal cell death compared with control group: 64.9%
